What was measured:
glutamine synthetase = conditions: product of bialaphos hydrolysis; ref [10]; cited from earlier work
Opp = conditions: ref [17]; cited from earlier work
opp expression = conditions: ref [17],[18]; cited from earlier work
Opp of B. subtilis = conditions: ref [10]; cited from earlier work
[1] = tested on: B. subtilis resistant clones; experiment: Cross-resistance of resistant clones; type: cell-based; conditions: of 10 GE81112-resistant clones
[2] = tested on: bacterial peptide transporting systems; conditions: ref [10]; cited from earlier work
Source text: Indeed, several peptide transport systems exist in E. coli as well in B. subtilis and the peptides actively transported inside the cells can supp ...

[3] = tested on: ribosome, 16S rRNA mutation A1518U; experiment: In vitro mRNA translation; type: biochemical; conditions: E. coli AVS69009 16S rRNA A1518U
Procedure: (§1) The ribosomal localization of GE81112, as determined by a recent crystallographic study, places this antibiotic in a position that is not too far away from the binding site of kasugamycin [20, 21]. For this reason, some ribosomal mutants bearing 16S rRNA base substitutions that cause kasugamycin resistance were tested for their sensitivity to GE81112 inhibition.
(§2) The 027IF2Cp(A) mRNA and the bacterial S30 cell extracts were prepared as described. The incubation conditions for mRNA translation and for the determination of synthesized product have also been previously described.

[4] = tested on: ribosome, 16S rRNA mutation G926U; experiment: In vitro mRNA translation; type: biochemical; conditions: E. coli AVS69009 16S rRNA G926U
Procedure: as §1, §2

[5] = tested on: ribosome, 16S rRNA mutation G926C; experiment: In vitro mRNA translation; type: biochemical; conditions: E. coli AVS69009 16S rRNA G926C
Procedure: as §1, §2

[6] = tested on: ribosome, 16S rRNA mutation A794G; experiment: In vitro mRNA translation; type: biochemical; conditions: E. coli AVS69009 16S rRNA A794G
Procedure: as §1, §2

ribosome, 16S rRNA wt = experiment: In vitro mRNA translation; type: biochemical; conditions: E. coli AVS69009 16S rRNA wt
Procedure: as §1, §2

[7] = tested on: ribosome, 16S rRNA mutation A794U; experiment: In vitro mRNA translation; type: biochemical; conditions: E. coli AVS69009 16S rRNA A794U
Procedure: as §1, §2

[8] = tested on: ribosome, 16S rRNA mutation G926A; experiment: In vitro mRNA translation; type: biochemical; conditions: E. coli AVS69009 16S rRNA G926A
Procedure: as §1, §2

[9] = tested on: E. coli SS5012 + pB2 + pBΦ30; experiment: Growth inhibition halo; type: cell-based; conditions: for Halo of Inhibition: minimal medium agar, 24 h at 37 °C
Procedure: (§3) The inhibition of bacterial growth by antibiotics was also determined from the diameter of the growth inhibition halo. Bacterial suspensions obtained after overnight growth in minimal medium were diluted and inoculated in 4 mL of Agar–H2O (0.75%) and plated on minimal medium. Ten-microliter spots of the antibiotics were added and the growth inhibition halos measured after 24 h incubation at 37 °C.

[10] = tested on: E. coli SS5012 (ΔoppABCDF); experiment: Growth inhibition halo; type: cell-based; conditions: for Halo of Inhibition: minimal medium agar, 24 h at 37 °C
Procedure: as §3

[11] = tested on: E. coli SS320 (wt) + pB2 + pBΦ30; experiment: Growth inhibition halo; type: cell-based; conditions: for Halo of Inhibition: minimal medium agar, 24 h at 37 °C
Procedure: as §3

[12] = tested on: E. coli DH5α + pB2 (oppBCDF); experiment: Growth inhibition halo; type: cell-based; conditions: 10 μg; minimal medium agar; 24 h at 37 °C
Procedure: as §3

E. coli MG1655 = experiment: Growth inhibition halo; type: cell-based
Procedure: as §3

E. coli DH5α = experiment: Growth inhibition halo; type: cell-based
Procedure: as §3

[13] = tested on: E. coli SS5012 + pB2 (oppBCDF); experiment: Growth inhibition halo; type: cell-based; conditions: minimal medium agar, 24 h at 37 °C
Procedure: as §3

[14] = tested on: E. coli SS5012 + pBΦ30 (oppA); experiment: Growth inhibition halo; type: cell-based; conditions: minimal medium agar, 24 h at 37 °C
Procedure: as §3

[15] = tested on: E. coli DH5α + pBΦ30 + pB2; experiment: Growth inhibition halo; type: cell-based; conditions: 10 μg; minimal medium agar; 24 h at 37 °C
Procedure: as §3

E. coli SS320 (wt) = experiment: Growth inhibition halo; type: cell-based; conditions: minimal medium agar, 24 h at 37 °C
Procedure: as §3

[16] = tested on: E. coli DH5α + pBΦ30 (oppA); experiment: Growth inhibition halo; type: cell-based; conditions: 10 μg; minimal medium agar; 24 h at 37 °C
Procedure: as §3

[17] = tested on: E. coli MG1655 resistant mutants; experiment: Cross-resistance of resistant mutants; type: cell-based; conditions: of 100 GE81112-resistant colonies; tri-L-ornithine 100 μg/mL
translation in vivo = conditions: early studies; ref [16]; cited from earlier work
Source text: (§4) Therefore, the most likely explanation for the observed tri-L-ornithine/GE81112 cross-resistance is that the mutations have inactivated the same transport mechanism that allows these two molecules to enter the cell.

[18] = tested on: mRNA translation in cell-free extracts; conditions: ref [16]; cited from earlier work
Source text: as §4

[19] = 10 μg, minimal medium agar, 24 h at 37 °C

Molecule: CP(=O)(O)CC[C@H](N)C(=O)O [phosphinothricin]
- inhibition of glutamine synthetase (glutamine synthetase): inhibits glutamine synthetase

Molecule: tri-L-alanine
- Opp substrate (Opp): known non-toxic Opp substrate

Molecule: CC(C)C[C@H](N)C(=O)O [L-leucine]
- effect on opp expression (opp expression): induces opp expression

Molecule: bialaphos
- active transport by Opp (Opp of B. subtilis): actively transported by Opp
- GE81112-resistant clones sensitive to bialaphos [1]: none
- active transport with antibacterial effects [2]: actively transported inside the cell causing antibacterial effects

Molecule: C[C@H]1O[C@H](O[C@H]2[C@H](O)[C@@H](O)[C@@H](O)[C@H](O)[C@@H]2O)[C@@H](N)C[C@@H]1NC(=N)C(=O)O [Kasugamycin]
- IC50 of mRNA Translation [3]: 880 µg/mL
- IC50 of mRNA Translation [4]: 750 µg/mL
- IC50 of mRNA Translation [5]: 192 µg/mL
- IC50 of mRNA Translation [6]: 780 µg/mL
- IC50 of mRNA Translation (ribosome, 16S rRNA wt): 12 µg/mL
- IC50 of mRNA Translation [7]: 384 µg/mL
- IC50 of mRNA Translation [8]: 390 µg/mL

Molecule: tri-L-ornithine [Orn3]
- Halo of Inhibition ([9]; 1 μg): 18 mm
- Halo of Inhibition ([9]; 10 μg): 26 mm
- sensitivity, in words ([9]; expression in trans of oppA together with oppBCDF): sensitive
- Halo of Inhibition ([10]; 1 μg): 0 mm
- Halo of Inhibition ([10]; 10 μg): 0 mm
- growth inhibition on minimal medium agar, in words ([10]; E. coli 5012, opp− mutant): insensitive
- Halo of Inhibition ([11]; 1 μg): 17 mm
- Halo of Inhibition ([11]; 10 μg): 27 mm
- sensitivity, in words ([11]; wt transformed with both pBΦ30 and pB2): more sensitive
- Halo of Inhibition [12]: 10 mm
- Halo of Inhibition (E. coli MG1655; [19]): 10 mm
- growth inhibition, in words (E. coli MG1655; E. coli MG1655 (Table 4)): inhibited
- Halo of Inhibition (E. coli DH5α; [19]): 0 mm
- growth inhibition, in words (E. coli DH5α; E. coli DH5α (Table 4)): unaffected
- Halo of Inhibition ([13]; 1 μg): 0 mm
- Halo of Inhibition ([13]; 10 μg): 0 mm
- Halo of Inhibition ([14]; 1 μg): 0 mm
- Halo of Inhibition ([14]; 10 μg): 0 mm
- Halo of Inhibition [15]: 14 mm
- Halo of Inhibition (E. coli SS320 (wt); 1 μg): 7 mm
- Halo of Inhibition (E. coli SS320 (wt); 10 μg): 12 mm
- Halo of Inhibition [16]: 11 mm
- number of GE81112-resistant mutants cross-resistant to tri-L-ornithine [17]: 100
- active transport with antibacterial effects [2]: actively transported inside the cell causing antibacterial effects
- inhibition of translation in vivo (translation in vivo): inhibits translation in vivo
- inhibition of mRNA translation in vitro [18]: unable to inhibit mRNA translation

— PMC4929432, “The Oligopeptide Permease Opp Mediates Illicit Transport of the Bacterial P-site Decoding Inhibitor GE81112” (Antibiotics, 2016)
